The values that follow come from patent US20240277781A1, “Compositions Comprising Microbes and Methods of Use and Making Thereof” (Pendulum Therapeutics, Inc., priority 2021, published 2024).

The test system of data set [1] is formulation strains (AMUC, BINF, CBEI, CBUT, EHAL). It counts as cell-based.
The conditions of data set [2]: taken orally; cited from earlier work.

For `COc1ccc(Cl)cc1C(=O)NCCc1ccc(S(=O)(=O)NC(=O)NC2CCCCC2)cc1` [glyburide], the “growth inhibition of formulation strains (yield decrease, lag increase)” value in data set [1] is “largest inhibitory effect overall”. Moreover, in data set [2], the fecal elimination percentage is 50% and the plasma half-life is 4 to 10 h.

`Cc1cnc(C(=O)NCCc2ccc(S(=O)(=O)NC(=O)NC3CCCCC3)cc2)cn1` [glipizide]: the fecal elimination percentage in data set [2] is listed as 10%.

For `CCC1=C(C)CN(C(=O)NCCc2ccc(S(=O)(=O)NC(=O)N[C@H]3CC[C@H](C)CC3)cc2)C1=O` [glimepiride], the “growth inhibition of formulation strains (yield decrease, lag increase)” value in data set [1] was “largest inhibitory effect overall”. Further, in data set [2], the fecal elimination percentage is given as 40% and the plasma half-life is 5 to 8 h.
